From article PMC3634413, “Synthesis of Thieno[2,3-b]thiophene Containing Bis-Heterocycles-Novel Pharmacophores” (International Journal of Molecular Sciences, 2013)
Like-named read-outs stand apart in the source and are kept apart here.

Legend:
[1] = target: T1, α-Glucosidase from Saccharomyces cerevisiae (Saccharomyces cerevisiae, UniProt P53341); assay: In vitro α-glucosidase inhibition assay; assay type: biochemical; details: pH 6.8, substrate p-nitrophenyl-α-D-glucopyranoside, NA = not active, failed to show 50% or more inhibition at 500 μM or more; for IC50: read-out: IC50 ± SEM, α-Glucosidase Inhibition
T1 construct: purchased Sigma Aldrich G0660-750UN
T1 sequence (P53341 whole entry): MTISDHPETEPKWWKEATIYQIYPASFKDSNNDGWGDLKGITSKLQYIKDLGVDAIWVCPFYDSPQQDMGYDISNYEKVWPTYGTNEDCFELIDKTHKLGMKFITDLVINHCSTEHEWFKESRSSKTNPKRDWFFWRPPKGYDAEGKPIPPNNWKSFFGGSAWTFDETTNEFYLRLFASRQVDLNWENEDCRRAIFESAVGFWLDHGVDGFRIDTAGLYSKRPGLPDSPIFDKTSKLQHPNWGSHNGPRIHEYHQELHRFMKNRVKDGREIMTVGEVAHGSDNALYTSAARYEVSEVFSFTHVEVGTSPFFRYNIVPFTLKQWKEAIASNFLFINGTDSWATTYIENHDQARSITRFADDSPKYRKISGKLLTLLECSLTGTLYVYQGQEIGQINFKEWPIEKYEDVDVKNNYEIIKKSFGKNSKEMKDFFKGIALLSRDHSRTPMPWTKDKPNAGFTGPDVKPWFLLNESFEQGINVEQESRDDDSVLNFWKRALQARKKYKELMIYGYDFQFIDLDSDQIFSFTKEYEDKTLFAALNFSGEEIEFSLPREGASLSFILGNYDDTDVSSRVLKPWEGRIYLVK
Procedure: α-Glucosidase inhibition assay was performed spectrophotometrically. α-Glucosidase from Saccharomyces cerevisiae (G0660-750UN, Sigma Aldrich), was dissolved in phosphate buffer (pH 6.8, 50 mM). Test compounds were dissolved in 70% DMSO. In 96-well plates, 20 μL of test sample, 20 μL of enzyme and 135 μL of buffer were added and incubated for 15 min at 37 °C. After incubation, 25 μL of p-nitrophenyl-α-D-glucopyranoside (0.7 mM, Sigma Aldrich) was added and change in absorbance was monitored for 30 min at 400 nm. Test compound was replaced with DMSO (7.5% final) in control. Acarbose (Sigma Aldrich) was used as a standard inhibitor [25, 26].
(§1) All reactions were performed in triplicate in a final volume of 200 μL. The results were processed using SoftMax Pro 4.8 software (Molecular Devices, Sunnyvale, CA, USA) and then using MS Excel. The percentage of inhibition was calculated by the following formula:
(§2) % Inhibition=100-(OD of test sample/OD of the control)×100

[2] = DPPH radical scavenging assay (in vitro antioxidant activity); details: DPPH 300 μM, 30 min at 37 °C, NA = not active, failed to show 50% or more inhibition at 500 μM or more; for IC50: read-out: IC50 ± SEM, DPPH Radical Scavenging Assay
Procedure: Test samples were allowed to react with stable free radical, 1,1-diphenyl-2-picrylhydrazyl radical (DPPH, Wako Chemicals, Shanghai, China) for half an hour at 37 °C. Various concentrations of test samples (prepared in DMSO) were incubated with DPPH (300 μM; prepared in ethanol). After incubation, decrease in absorption was measured at 515 nm by using a microplate reader (SpectraMax plus 384). Percentage radical scavenging activity (% RSA) of samples was determined in comparison with a DMSO-treated control group. Percentage of radical scavenging activity was calculated by using the formula given in statistical analysis section.
as §1, §2

PC-3 cell line = assay: Anticancer (cytotoxic) activity, MTT colorimetric assay; assay type: cell-based; details: compounds 1–30 μM, n = 3, read-out: IC50 ± SEM, Anticancer Activity (PC-3 Cell line)
Procedure: Cytotoxic activity of compounds was evaluated in 96-well flat-bottomed microplates by using the standard MTT (3-[4,5-dimethylthiazole-2-yl]-2,5-diphenyl-tetrazolium bromide, MP) colorimetric assay. For this purpose, PC3 cells (Prostrate Cancer) were cultured in Dulbecco’s Modified Eagle Medium, supplemented with 10% of fetal bovine serum (FBS, PAA), 100 IU/mL of penicillin and 100 μg/mL of streptomycin in 75 cm^2 flasks, and kept in 5% CO2 incubator at 37 °C. Exponentially growing cells were harvested, counted with a haemocytometer, and diluted with a particular medium with 5% FBS. Cell culture with the concentration of 1 × 10^5 cells/mL was prepared and introduced (100 μL/well) into 96-well plates. After overnight incubation, medium was removed and 200 μL of fresh medium was added with different concentrations of compounds (1–30 μM). Stock solution, 20 mM of compounds were prepared in 100% DMSO, and the final concentration of DMSO at 30 μM is 0.15%. After 48 h, 200 μL MTT (0.5 mg/mL) was added to each well and incubated further for four hours. Subsequently, 100 μL of DMSO was added to each well. The extent of MTT reduction to formazan within cells was calculated by measuring the absorbance at 570 nm, using a microplate reader (SpectraMax plus, Molecular Devices, Sunnyvale, CA, USA). The cytotoxicity was recorded as concentration causing 50% growth inhibition (IC50) for PC3 cells. The percent inhibition was calculated by using the following formula:
% Inhibition=100-((mean of OD of test compound-mean of OD of negative control)/(mean of OD of positive control-mean of OD of negative control)×100).
The results (% inhibition) were processed by using SoftMax Pro software (Molecular Device, USA).

β-glucuronidase = target: T2, β-glucuronidase (Escherichia coli, UniProt P05804); assay: In vitro β-glucuronidase inhibition assay; assay type: biochemical; details: substrate p-nitrophenyl-β-D-glucuronide, 37 °C; NA = not active, failed to show 50% or more inhibition at 500 μM or more; read-out: IC50 ± SEM, β-Glucuronidase Inhibition
T2 construct: purchased Sigma Aldrich G7396-25KU
T2 sequence (P05804 whole entry): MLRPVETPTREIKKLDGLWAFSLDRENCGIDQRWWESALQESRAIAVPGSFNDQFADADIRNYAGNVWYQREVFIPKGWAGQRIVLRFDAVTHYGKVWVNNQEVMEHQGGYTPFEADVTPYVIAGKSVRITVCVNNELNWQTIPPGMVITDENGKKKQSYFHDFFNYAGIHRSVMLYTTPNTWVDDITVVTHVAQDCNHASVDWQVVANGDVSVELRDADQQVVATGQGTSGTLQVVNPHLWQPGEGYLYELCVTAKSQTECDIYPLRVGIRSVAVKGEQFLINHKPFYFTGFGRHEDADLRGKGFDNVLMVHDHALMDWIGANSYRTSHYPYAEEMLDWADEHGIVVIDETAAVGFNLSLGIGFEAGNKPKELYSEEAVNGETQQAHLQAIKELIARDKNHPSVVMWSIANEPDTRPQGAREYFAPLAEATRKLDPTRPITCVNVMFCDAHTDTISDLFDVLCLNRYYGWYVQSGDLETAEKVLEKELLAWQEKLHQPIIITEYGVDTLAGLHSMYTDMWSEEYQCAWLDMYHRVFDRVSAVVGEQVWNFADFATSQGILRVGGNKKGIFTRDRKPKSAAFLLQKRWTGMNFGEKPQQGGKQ
Procedure: Results are presented here as means ± standard error mean from triplicate (n = 3) observation. IC50 Values were determined by using EZ-FIT, enzyme kinetics software by Perrella Scientific, Inc., USA.
β-Glucuronidase inhibitory activity was determined by the spectrophotometric method by measuring the absorbance at 405 nm of p-nitrophenol formed from the substrate p-nitrophenyl-β-D-glucuronide N1627-250 mg (Sigma Aldrich Co., 3050 spruce street, St. Louis, MO, USA). The total reaction volume was 250 μL. The compound (5 μL) was dissolved in DMSO (100%), which became 2% in the ultimate assay (250 μL) and similar conditions were used for standard (D-saccharic acid 1,4-lactone, Sigma Aldrich Co.). The reaction mixture contained 185 μL of 0.1 M acetate buffer, 5 μL of test compound solution, 10 μL of (1U) enzyme solution (G7396-25KU, Sigma Aldrich) was incubated at 37 °C for 30 min. The plates were read on a multiplate reader (SpectraMax plus 384) at 405 nm after the addition of 50 μL of 0.4 mM p-nitrophenyl-β-D-glucuronide. All assays were performed in triplicate. IC50 Values were calculated by using EZ-Fit software (Perrella Scientific Inc., Amherst, MA, USA). These values are the mean of three independent readings.

Compound	melting point [°C]	IC50 (β-glucuronidase) [µM]	IC50 (PC-3 cell line; Homo sapiens, PC-3, 48 h) [µM]	other results
3,3′-(3-Methyl-4-Phenylthieno[2,3-b]Thiophene-2,5-Diyl)Bis(1-Phenyl-1H-Pyrazole) [Compound 5b]		8.7 ± 0.1		IC50 [1]: 58.4 ± 1.2 µM; IC50 [2]: 165 ± 2.8 µM; IC50 (PC-3 cell line; 48 h): > 30 µM
Cc1c(-c2ccnc(S)n2)sc2sc(-c3ccnc(S)n3)c(-c3ccccc3)c12 [Compound 4b, 4,4′-(3-Methyl-4-Phenylthieno[2,3-b]Thiophene-2,5-Diyl)Dipyrimidin-2-Thiol]	247	1.3 ± 0.2	> 30	IC50 ± SEM, α-Glucosidase Inhibition [1]: inactive; IC50 ± SEM, DPPH Radical Scavenging Assay [2]: inactive
Cc1c(-c2cc[nH]n2)sc2sc(-c3cc[nH]n3)c(-c3ccccc3)c12 [Compound 5a, 3,3′-(3-Methyl-4-Phenylthieno[2,3-b]Thiophene-2,5-Diyl)Bis(1H-Pyrazole)]	177	2.3 ± 0.4	22.5 ± 0.1	IC50 [1]: 22 ± 0.3 µM; IC50 ± SEM, DPPH Radical Scavenging Assay [2]: no antioxidant activity
O=C(O)[C@@H](O)[C@H]1OC(=O)[C@H](O)[C@H]1O [D-Saccharic acid 1,4-lactone, D-saccharic acid 1,4-lactone, reference compound]		45.8		
COc1cccc2c1C(=O)c1c(O)c3c(c(O)c1C2=O)C[C@@](O)(C(=O)CO)C[C@@H]3O[C@H]1C[C@H](N)[C@H](O)[C@H](C)O1 [Doxorubicin, reference compound]			0.91 ± 0.1	
CC(=O)N[C@@H](CS)C(=O)O [N-Acetylcysteine, reference compound]				IC50 [2]: 106 ± 1.1 µM

Now from value to compound, other results behind:

melting point [°C]	Compound	IC50 (β-glucuronidase) [µM]	IC50 (PC-3 cell line; Homo sapiens, PC-3, 48 h) [µM]	other results
250	Cc1c(C(=O)C=CN(C)C)sc2sc(C(=O)C=CN(C)C)c(-c3ccccc3)c12 [Compound 3, 1,1′-(3-Methyl-4-Phenylthieno[2,3-b]Thiophene-2,5-Diyl)Bis(3-(Dimethylamino)Prop-2-En-1-One)]		> 30	
248	Cc1c(-c2ccnc(O)n2)sc2sc(-c3ccnc(O)n3)c(-c3ccccc3)c12 [Compound 4a, 4,4′-(3-Methyl-4-Phenylthieno[2,3-b]Thiophene-2,5-Diyl)Dipyrimidin-2-Ol]		> 30	
246	Cc1c(-c2ccnc(N)n2)sc2sc(-c3ccnc(N)n3)c(-c3ccccc3)c12 [Compound 4c, 4,4′-(3-Methyl-4-Phenylthieno[2,3-b]Thiophene-2,5-Diyl)Dipyrimidin-2-Amine]			
245	Cc1c(-c2ccnc3ncnn23)sc2sc(-c3ccnc4ncnn34)c(-c3ccccc3)c12 [Compound 6, 7,7′-(3-Methyl-4-Phenylthieno[2,3-b]Thiophene-2,5-Diyl)Di-[1,2, 4]Triazolo[1,5-a]Pyrimidine]		> 30	
245	Cc1c(-c2ccnc3nc4ccccc4n23)sc2sc(-c3ccnc4nc5ccccc5n34)c(-c3ccccc3)c12 [Compound 7, 2,2′-(3-Methyl-4-Phenylthieno[2,3-b]Thiophene-2,5-Diyl)Bis(Benzo[4, 5]Imidazo[1,2-a] Pyrimidine)]		> 30	
